Assay results published in patent publication US20240124483A1, “Methods for the Treatment of Fibrotic Disease” (SHY Therapeutics, LLC, priority 2021, published 2024).
Where two headings read alike, the source gives them in different places.

Assays:
[1] = target: KRas G12D mutant (Homo sapiens (Human), UniProt P01116, G12D); test: Ras GTP Binding Domain Inhibition Assay, KRas G12D mutant; conditions: for inhibition at 20 µM: Table 7; for KRas G12D mutant + SOS: % inh. / KRas G12D mutant: % inh.: 20 uM, Table 8
How it was run: (§1)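 Fluorescent GTP binding to plate-captured His-tagged Ras: compound 20 μM (or dilution series for IC50), 3 h RT, ±Sos GEF 10-30 μg/mL last hour; then 100 nM Cy3/Cy5-GTP 45 min RT, wash ×3, read bound label.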

[2] = tested on: Smad2/3 phosphorylation; test: Phospho-Smad2/3 Inhibition Assay in Panc-1 (western blot); assay type: cell-based; conditions: Homo sapiens; 10 μM, 3 hours; PANC-1 stimulated with 10 ng/ml TGF-b1 for 1 hour; read-out: % inh of Smad2/3 phosphorylation in PANC-1
How it was run: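 Serum-starved cells (0.5% FBS overnight) pretreated 3 h at 37 °C with compound at 10 μM or serial dilutions for IC50, in 0.3% DMSO. TGF-b1 10 ng/ml stimulation: 1 h for Panc-1 (human), 20 min for C2C12 (mouse). Phospho-Smad2 (Ser465/467) and phospho-Smad3 (Ser423/425) measured by western blot of lysates.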

[3] = target: Rho-A (Homo sapiens (Human), UniProt P61586); test: Ras GTP Binding Domain Inhibition Assay, Rho-A; conditions: without SOS, read-out: Rho-A: % inh.
How it was run: (§2)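 Steps: coat His-tagged protein (10-30 μg/mL) on nickel wells overnight at 4° C; add test compound, 20 μM final or serial dilution, 1% DMSO, 3 h RT; optional Sos final hour; add 100 nM Cy3-GTP or Cy5-GTP, 45 min; wash and read fluorescence.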

[4] = target: Rac-1 (Homo sapiens (Human), UniProt P63000); test: Ras GTP Binding Domain Inhibition Assay, Rac-1; conditions: without SOS, read-out: Rac-1: % inh.
How it was run: as §2

[5] = target: KRas G12C mutant (Homo sapiens (Human), UniProt P01116, G12C); test: Ras GTP Binding Domain Inhibition Assay, KRas G12C mutant
How it was run: as §1

[6] = + SOS, read-out: KRas G12D mutant + SOS: % inh.
[7] = without SOS, read-out: KRas G12D mutant: % inh.
[8] = + SOS, read-out: KRas G12C mutant + SOS: % inh.
[9] = without SOS, read-out: KRas G12C mutant: % inh.

KRas G12C mutant, sequence (P01116 other isoform, or with tags, fused parts or gaps G12C): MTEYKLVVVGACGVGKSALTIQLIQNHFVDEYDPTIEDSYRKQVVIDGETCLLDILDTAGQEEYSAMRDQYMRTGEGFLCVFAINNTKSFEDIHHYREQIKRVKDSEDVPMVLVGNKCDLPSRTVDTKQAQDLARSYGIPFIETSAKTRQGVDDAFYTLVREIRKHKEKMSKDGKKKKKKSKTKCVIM
KRas G12D mutant, sequence (P01116 other isoform, or with tags, fused parts or gaps G12D): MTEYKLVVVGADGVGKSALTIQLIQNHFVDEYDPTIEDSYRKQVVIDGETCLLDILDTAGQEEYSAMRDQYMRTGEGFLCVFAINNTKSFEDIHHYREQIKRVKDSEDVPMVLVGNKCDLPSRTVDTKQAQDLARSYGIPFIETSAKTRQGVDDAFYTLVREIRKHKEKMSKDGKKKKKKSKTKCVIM
Rho-A, sequence (P61586 whole entry, species assumed, the tested form may be a part): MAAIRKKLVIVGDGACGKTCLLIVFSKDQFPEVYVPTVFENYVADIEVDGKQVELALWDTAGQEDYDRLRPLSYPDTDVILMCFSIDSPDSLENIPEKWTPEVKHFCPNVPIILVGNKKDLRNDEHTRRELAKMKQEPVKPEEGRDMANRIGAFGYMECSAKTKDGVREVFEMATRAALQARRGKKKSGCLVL

Row | SMILES | inhibition at 20 µM [1, 6] [%] | KRas G12D mutant + SOS: % inh. ([1]; + SOS) | inhibition at 20 µM [1, 7] [%] | KRas G12D mutant: % inh. ([1]; without SOS) | inhibition at 20 µM [3] [%] | inhibition at 20 µM [4] [%] | inhibition at 20 µM [5, 8] [%] | inhibition at 20 µM [5, 9] [%] | inhibition at 10 µM [2] [%]
1 | COc1cc(Cn2c(-c3nccn3C)nc3sc(-c4ccn(C(C)C)n4)c(C)c3c2=O)ncn1 [Compound 35, 6-(1-Isopropyl-1H-pyrazol-3-yl)-3-((6-methoxypyrimidin-4-yl)methyl)-5-methyl-2-(1-methyl-1H-imidazol-2-yl)thieno[2,3-d]pyrimidin-4(3H)-one] | 0 | 0 (0 = 0% inhibition) | 1 to 25 | A (A = 1-25% inhibition) | 0 | 0 | 1 to 25 | 0 | 0
2 | COCCCn1c(-c2nccn2C)nc2sc(-c3ccn(C(C)C)n3)c(-c3ccccc3)c2c1=O [Compound 36, 6-(1-Isopropyl-1H-pyrazol-3-yl)-3-(3-methoxypropyl)-2-(1-methyl-1H-imidazol-2-yl)-5-phenylthieno[2,3-d]pyrimidin-4(3H)-one] | 0 | 0 (0 = 0% inhibition) | 0 | 0 (0 = 0% inhibition) | 0 | 0 | 1 to 25 | 0 | 0
3 | COCCCOc1nc(-c2nccn2C)nc2sc(-c3ccn(C(C)C)n3)c(-c3ccccc3)c12 [Compound 37, 6-(1-Isopropyl-1H-pyrazol-3-yl)-4-(3-methoxypropoxy)-2-(1-methyl-1H-imidazol-2-yl)-5-phenylthieno[2,3-d]pyrimidine] | 0 | 0 (0 = 0% inhibition) | 0 | 0 (0 = 0% inhibition) | 0 | 0 | 0 | 0 | 0

More lines, main results first:

Row | inhibition at 20 µM [1, 6] [%] | KRas G12D mutant + SOS: % inh. ([1]; + SOS) | inhibition at 20 µM [1, 7] [%] | KRas G12D mutant: % inh. ([1]; without SOS) | inhibition at 20 µM [3] [%] | inhibition at 20 µM [4] [%] | inhibition at 20 µM [5, 8] [%] | inhibition at 20 µM [5, 9] [%] | SMILES | inhibition at 10 µM [2] [%]
4 | 76 to 100 | D (D = 76-100% inhibition) | 46 to 75 | C (C = 46-75% inhibition) | 26 to 45 | 26 to 45 | 76 to 100 | 46 to 75 | COc1cccc(-c2sc3nc(-c4nccn4C)nc(N[C@H]4C[C@H](OC)C4)c3c2-c2ccccc2)c1F [Compound 40, 6-(2-Fluoro-3-methoxyphenyl)-N-((1r,3r)-3-methoxycyclobutyl)-2-(1-methyl-1H-imidazol-2-yl)-5-phenylthieno[2,3-d]pyrimidin-4-amine] | 76 to 100
5 | 76 to 100 | D (D = 76-100% inhibition) | 26 to 45 | B (B = 26-45% inhibition) | 46 to 75 | 0 | 76 to 100 | 46 to 75 | COc1cccc(-c2sc3nc(-c4nccn4C)nc(N[C@H]4C[C@H](OC)C4)c3c2C)c1F [Compound 42, 6-(2-Fluoro-3-methoxyphenyl)-N-((1r,3r)-3-methoxycyclobutyl)-5-methyl-2-(1-methyl-1H-imidazol-2-yl)thieno[2,3-d]pyrimidin-4-amine] | 1 to 25
6 | 46 to 75 | C (C = 46-75% inhibition) | 46 to 75 | C (C = 46-75% inhibition) | 46 to 75 | 46 to 75 | 76 to 100 | 26 to 45 | COc1nccc(-c2sc3nc(-c4nccn4C)nc(N[C@H]4C[C@H](OC)C4)c3c2-c2ccccc2)c1F [Compound 45, 6-(3-Fluoro-2-methoxypyridin-4-yl)-N-((1r,3r)-3-methoxycyclobutyl)-2-(1-methyl-1H-imidazol-2-yl)-5-phenylthieno[2,3-d]pyrimidin-4-amine] | 76 to 100
7 | 46 to 75 | C (C = 46-75% inhibition) | 46 to 75 | C (C = 46-75% inhibition) | 46 to 75 | 46 to 75 | 76 to 100 | 26 to 45 | COc1cc(-c2sc3nc(-c4nccn4C)nc(N[C@H]4C[C@H](OC)C4)c3c2-c2ccccc2)ccn1 [Compound 46, N-((1r,3r)-3-Methoxycyclobutyl)-6-(2-methoxypyridin-4-yl)-2-(1-methyl-1H-imidazol-2-yl)-5-phenylthieno[2,3-d]pyrimidin-4-amine] | 76 to 100
